# Assay results from US4454122A, “Adenosine derivatives of anti-inflammatory and analgesic activity, and therapeutic compositions which contain them as their active principle” (Bioresearch S.r.l., priority 1982, dated 1984).
# Legend:
# [1] = test system: experimental edema in the rat by carragen; experiment: experimental edema in the rat by carragen (Winter method), percentage protection; type: in vivo; details: for inhibition in vivo at 80 mg/kg: 80 mg/kg orally; for inhibition in vivo at 85 mg/kg: 85 mg/kg orally
# rat = details: Martelli A., 1973; cited from earlier work
# gastro-intestinal system = experiment: secondary effects on the gastro-intestinal system at ED50 doses (gastric lesions); type: in vivo, rat; details: at ED50 doses
# Experimental: In the same test, the ED50 of indomethacine is 9 mg/kg.
# [2] = test system: pleuritis induced in the rat by carragen; experiment: pleuritis induced in the rat by carragen (Velo method); type: in vivo
# [3] = test system: experimental edema in the rat by carragen; experiment: experimental edema in the rat by carragen (Winter method), percentage protection; type: in vivo
# Experimental: ^ (a) signifies that the product was administered intramuscularly.
# [4] = lethal dose in the rat and therapeutical index; details: in vivo; edema test in the rat; read-out: therapeutical index (TI)
# [5] = test system: fever induced in the rat by beer yeast; experiment: fever induced in the rat by beer yeast (antipyretic activity); type: in vivo; details: 200 mg/kg, orally
# Experimental: This was measured for the new products by means of fever induced in the rat by beer yeast (Winder C. V. et al (1961) J. Pharmacol. Exp. Ther. 133, 117).
# mouse = experiment: hot plate test on the mouse according to Roberts (analgesic activity); type: in vivo
# Experimental: C--The analgesic activity of the products was tested by two tests considered very significant.
# In the hot plate test on the mouse according to Roberts (Roberts E. Simonsen D.G. (1966) Biochem. Pharmac. 15, 1875-) the MTA gives a protection of 50% with an oral dose of 37 mg/kg. An approximately equivalent protection of 58% is obtained with 100 mg/kg of amidopyrine administered orally.
# [6] = test system: platelet aggregation induced by arachidonic acid; experiment: in vitro platelet aggregation induced by arachidonic acid (AA); type: cell-based; details: MTA 5×10^-4 M or PGI2 5×10^-9 M, each alone; FIG. 3
# Experimental: (2) "in vitro" tests on platelet aggregation induced by arachidonic acid (AA);
# Blood was withdrawn without stasis, and an anticoagulant (3.8% sodium citrate) was added to give a blood:citrate ratio of 9:1. Plasma rich in platelets and plasma poor in platelets were obtained by centrifuging at ambient temperature.
# The platelet aggregation was estimated using the Born & Cross method (G. V. R. Born and M. J. Cross, J. Physiol., Lond. 168, 178, 1963) on the plasma fraction rich in platelets.
# The aggregating agents were used in the following concentrations:
# ADP (Sigma) 1 μM; collagen (Horn) 5 μml; arachidonic acid 4×10^-4 M.
# The capacity of MTA to increase the inhibiting effect of prostacyclin (PGI2) in aggregation induced by AA was also investigated. In FIG. 3, curve 1 relates to the controls, curve 2 to MTA at a concentration of 5×10^-4 M, curve 3 to PGI2 at a concentration of 5×10^-9 M, and curve 4 to a mixture consisting of 5×10^-4 M MTA and 5×10^-9 M PGI2.
# [7] = test system: stretching by phenylquinone; experiment: stretching test by phenylquinone (analgesic activity); type: in vivo; details: im; intramuscularly
# [8] = acute toxicity, DL50 in the mouse; details: in vivo
# From the text: The compounds of the present invention are practically free from acute toxicity when administered orally. They are practically free from toxicity at therapeutic doses for any method of administration. The following values are obtained for MTA and MTA sulphoxide: […]
# [9] = po, rat, read-out: Percent protection calculated on edema development
# [10] = intramuscular, table 1 and all the tests carried out
smiles,measurement,setting,value
"CCSC[C@H]1O[C@@H](n2cnc3c(N)ncnc32)[C@H](O)[C@@H]1O [n = 0 R = CH2CH3, R1 = R2 = H, 5'-deoxy-5'-ethylthioadenosine]",inhibition in vivo at 80 mg/kg,[1]; [9],44%
"COc1ccc2c(c1)c(CC(=O)O)c(C)n2C(=O)c1ccc(Cl)cc1 [Indomethacine, reference compound]",ED50,"[1]; Rattus norvegicus, po, read-out: ED50 (edema test)",9 mg/kg
same,LD in the rat,rat,12 mg/kg
same,secondary effect on the gastro-intestinal system / gastric lesions,gastro-intestinal system,serious gastric lesions
same,"protection, compared with that of MTA (in words)","[2]; 10 mg/kg, compared with MTA 75 mg/kg oral",comparable protection
same,inhibition in vivo at 9 mg/kg,"[3]; Rattus norvegicus, po, read-out: Percent protection calculated on edema development",50%
same,selectivity ratio,[4],1.3
"CCCCCCCCSC[C@H]1O[C@@H](n2cnc3c(N)ncnc32)[C@H](O)[C@@H]1O [n = 0 R = (CH2)7CH3, R1 = R2 = H]",inhibition in vivo at 100 mg/kg,"[1]; po, 100 mg/kg orally, rat, read-out: Percent protection calculated on edema development",47%
"Nc1ncnc2c1ncn2[C@@H]1O[C@H](CSCc2ccccc2)[C@@H](O)[C@H]1O [n = 0 R = CH2C6 H5, R1 = R2 = H]",inhibition in vivo at 47 mg/kg,"[1]; po, 47 mg/kg orally, rat, read-out: Percent protection calculated on edema development",10%
"CCCCCCCCCCSC[C@H]1O[C@@H](n2cnc3c(N)ncnc32)[C@H](O)[C@@H]1O [n = 0 R = (CH2)9CH3, R1 = R2 = H]",inhibition in vivo at 106 mg/kg,"[1]; po, 106 mg/kg orally, rat, read-out: Percent protection calculated on edema development",33%
CCC(C)SC[C@H]1O[C@@H](n2cnc3c(N)ncnc32)[C@H](O)[C@@H]1O (stereo partly drawn),inhibition in vivo at 85 mg/kg,[1]; [9],35%
"Cc1c(N(C)C)c(=O)n(-c2ccccc2)n1C [amidopyrine, reference compound]",temperature reduction,[5],4.69%
same,protection in the hot plate test,"mouse; 100 mg/kg, oral",58%
"CCCSC[C@H]1O[C@@H](n2cnc3c(N)ncnc32)[C@H](O)[C@@H]1O [n = 0 R = (CH2)2CH3, R1 = R2 = H]",inhibition in vivo at 80 mg/kg,[1]; [9],53%
"CCCCCCCSC[C@H]1O[C@@H](n2cnc3c(N)ncnc32)[C@H](O)[C@@H]1O [n = 0 R = (CH2)6CH3, R1 = R2 = H]",inhibition in vivo at 95 mg/kg,"[1]; po, 95 mg/kg orally, rat, read-out: Percent protection calculated on edema development",20%
"CCCCC[C@H](O)/C=C/[C@@H]1[C@H]2C/C(=C/CCCC(=O)O)O[C@H]2C[C@H]1O [PGI2, reference compound]","antiaggregation action alone, AA induced (in words)",[6],ineffective
"C[S+]([O-])C[C@H]1O[C@@H](n2cnc3c(N)ncnc32)[C@H](O)[C@@H]1O (stereo partly drawn) [MTA sulphoxide, methylthioadenosine sulphoxide]",activity by intramuscular administration (in words),[1]; [10],particularly active
same,inhibition in vivo at 156 mg/kg,"[1]; po, 156 mg/kg orally, rat, read-out: Percent protection calculated on edema development",50%
same,ED50,[7],10 mg/kg
same,protection calculated on the total number of cells present in the exudate,"[2]; 80 mg/kg, intramuscularly, rat",76.4%
same,protection calculated on the volume of the exudate,"[2]; 80 mg/kg, intramuscularly, rat",75.8%
same,protection in the hot plate test,"mouse; 20 mg/kg, intramuscularly",50%
same,protection in the hot plate test,"mouse; 100 mg/kg, oral",50%
same,inhibition in vivo at 8.6 mg/kg,"[3]; im, 8.6 mg/kg intramuscularly, rat, read-out: Percent protection calculated on edema development",50%
same,activity by intramuscular administration (in words),[3]; [10],greater activity
same,LD50,"[8]; iv, intravenously",400 mg/kg
same,LD50,"[8]; po, orally",> 2000 mg/kg
CC(C)SC[C@H]1O[C@@H](n2cnc3c(N)ncnc32)[C@H](O)[C@@H]1O,inhibition in vivo at 80 mg/kg,[1]; [9],45%
CC(C)CSC[C@H]1O[C@@H](n2cnc3c(N)ncnc32)[C@H](O)[C@@H]1O,inhibition in vivo at 85 mg/kg,[1]; [9],62%
"CCCCCSC[C@H]1O[C@@H](n2cnc3c(N)ncnc32)[C@H](O)[C@@H]1O [n = 0 R = (CH2)4CH3, R1 = R2 = H]",inhibition in vivo at 90 mg/kg,"[1]; po, 90 mg/kg orally, rat, read-out: Percent protection calculated on edema development",25%
"CCCCSC[C@H]1O[C@@H](n2cnc3c(N)ncnc32)[C@H](O)[C@@H]1O [n = 0 R = (CH2)3CH3, R1 = R2 = H]",inhibition in vivo at 85 mg/kg,[1]; [9],39%
"CCCCCCCCCCCCSC[C@H]1O[C@@H](n2cnc3c(N)ncnc32)[C@H](O)[C@@H]1O [n = 0 R = (CH2)11CH3, R1 = R2 =]",inhibition in vivo at 112 mg/kg,"[1]; po, 112 mg/kg orally, rat, read-out: Percent protection calculated on edema development",10%
"CSC[C@H]1O[C@@H](n2cnc3c(N)ncnc32)[C@@H]2OC(C)(C)O[C@@H]21 [n = 0 R = CH3, R1 = H, R2R1 = isopropyl, 5'-deoxy-2',3'-isopropylidene-5'-methylthioadenosine]",inhibition in vivo at 91 mg/kg,"[1]; po, 91 mg/kg orally, rat, read-out: Percent protection calculated on edema development",20%
"CSC[C@H]1O[C@@H](n2cnc3c(NC(C)=O)ncnc32)[C@H](OC(C)=O)[C@@H]1OC(C)=O [n = 0 R = CH3, R1 = R2 = COCH3, N^6,2',3'-triacetyl-5'-deoxy-5'-thioadenosine]",inhibition in vivo at 114 mg/kg,"[1]; po, 114 mg/kg orally, rat, read-out: Percent protection calculated on edema development",47%
"CSC[C@H]1O[C@@H](n2cnc3c(NS(=O)(=O)c4ccc(C)cc4)ncnc32)[C@H](OS(=O)(=O)c2ccc(C)cc2)[C@@H]1OS(=O)(=O)c1ccc(C)cc1 [n = 0 R = CH3, R1 = R2 = tosyl]",inhibition in vivo at 204 mg/kg,"[1]; po, 204 mg/kg orally, rat, read-out: Percent protection calculated on edema development",15%
"CSC[C@H]1O[C@@H](n2cnc3c(NC(=O)c4ccccc4)ncnc32)[C@H](OC(=O)c2ccccc2)[C@@H]1OC(=O)c1ccccc1 [n = 0 R = CH3, R1 = R2 = COC6 H5]",inhibition in vivo at 164 mg/kg,"[1]; po, 164 mg/kg orally, rat, read-out: Percent protection calculated on edema development",10%
